Reference: paper PMC6510822, “Identification of anticancer OATP2B1 substrates by an in vitro triple-fluorescence-based cytotoxicity screen” (Archives of Toxicology, 2019)
Like-named read-outs stand apart in the source and are kept apart here.

How the values were obtained:
A431 cells = assay: Fluorescence-based cytotoxicity assay, parental A431 eGFP; conditions: Homo sapiens
OATP2B1 = assay: Fluorescence-based cytotoxicity assay, OATP2B1-expressing A431-2B1 mCh; conditions: human
[1] = system: A431-G2 cells (ABCG2 expressing); assay: Fluorescence-based cytotoxicity assay, ABCG2-expressing A431-G2 mOr
[2] = system: Mes-Sa-B1 cells (Pgp overexpressing); assay: Fluorescence-based cytotoxicity assay, Mes-Sa-B1 mOr; conditions: for SR (Mes-Sa-B1): selectivity ratio = IC50 parental Mes-Sa / IC50 Mes-Sa-B1
Mes-Sa/Dx5 cells = assay: Fluorescence-based cytotoxicity assay, Mes-Sa/Dx5 eGFP; conditions: triple co-culture screen; for SR (Mes-Sa/DX5): selectivity ratio = IC50 parental Mes-Sa / IC50 Mes-Sa/Dx5; for RR (Dx5): resistance ratio = IC50 Mes-Sa/Dx5 / IC50 parental Mes-Sa
[3] = system: A431-B1 cells (ABCB1/P-glycoprotein expressing); assay: Fluorescence-based cytotoxicity assay, ABCB1-expressing A431-B1 mCh
[4] = resistance ratio = IC50 Mes-Sa-B1 / IC50 parental Mes-Sa, triple co-culture screen
[5] = resistance ratio = IC50 A431B1 / IC50 parental A431, triple co-culture screen
[6] = triple co-culture, result in words

CCc1c2c(nc3ccc(OC(=O)N4CCC(N5CCCCC5)CC4)cc13)-c1cc3c(c(=O)n1C2)COC(=O)[C@]3(O)CC [NSC-616348, Irinotecan]
IC50 (A431 cells; A-431, read-out: IC50 (µM) A431 eGFP, co-culture): 13.8 µM | IC50 (A431 cells; A-431, read-out: IC50 (µM) A431 eGFP, monoculture): 11.1 µM | IC50 at […] (OATP2B1): […] | IC50 at […] (OATP2B1; A431-2B1 mCherry cells (OATP2B1-expressing), monoculture): […] | Effect of ABCG2 expression on toxicity (A431-G2 vs parental A431) [1]: conferred resistance

Nc1nc2[nH]cc(CCc3ccc(C(=O)N[C@@H](CCC(=O)O)C(=O)O)cc3)c2c(=O)[nH]1 [NSC-698037, Pemetrexed]
SR (Mes-Sa-B1) ([2]; triple co-culture screen): 1.14 | SR (Mes-Sa/DX5) (Mes-Sa/Dx5 cells): 3.29

Cc1nc(Nc2ncc(C(=O)Nc3c(C)cccc3Cl)s2)cc(N2CCN(CCO)CC2)n1 [NSC-732517, Dasatinib]
Effect of ABCG2 expression on toxicity (A431-G2 vs parental A431) [1]: conferred resistance | RR (A431B1) [3]: 11.5 | RR (Mes-Sa-B1) [2, 4]: 3.147 | RR (Dx5) (Mes-Sa/Dx5 cells): > 3.60

Cc1cn(-c2cc(NC(=O)c3ccc(C)c(Nc4nccc(-c5cccnc5)n4)c3)cc(C(F)(F)F)c2)cn1 [NSC-747599, Nilotinib]
SR (Mes-Sa-B1) ([2]; triple co-culture screen): 1.23 | SR (Mes-Sa/DX5) (Mes-Sa/Dx5 cells): 4.68

C/C(=C\c1csc(C)n1)[C@@H]1C[C@@H]2O[C@]2(C)CCC[C@H](C)[C@H](O)[C@@H](C)C(=O)C(C)(C)[C@@H](O)CC(=O)N1 [NSC-747973, Ixabepilone]
RR (A431B1) [3]: 23.32 | RR (Mes-Sa-B1) [2]: >208.3 | RR (Dx5) (Mes-Sa/Dx5 cells): 9.66

C/C=C1\NC(=O)[C@H]2CSSCC/C=C/[C@H](CC(=O)N[C@H](C(C)C)C(=O)N2)OC(=O)[C@H](C(C)C)NC1=O [NSC-754143, Romidepsin]
RR (A431B1) [3]: > 97 | RR (Mes-Sa-B1) [2]: 331.70 | RR (Dx5) (Mes-Sa/Dx5 cells): > 234.15

CS(=O)(=O)c1ccc(C(=O)Nc2ccc(Cl)c(-c3ccccn3)c2)c(Cl)c1 [NSC-755986, Vismodegib]
SR (Mes-Sa/DX5) (Mes-Sa/Dx5 cells): > 3.31

CC(C)C[C@H](NC(=O)[C@H](CCc1ccccc1)NC(=O)CN1CCOCC1)C(=O)N[C@@H](Cc1ccccc1)C(=O)N[C@@H](CC(C)C)C(=O)[C@@]1(C)CO1 [NSC-758252, Carfilzomib]
RR (A431B1) [3, 5]: 47.4 | RR (Mes-Sa-B1) [2, 4]: 55.50 | RR (Dx5) (Mes-Sa/Dx5 cells): 88.00

CO[C@H]1C(=O)[C@]2(C)[C@@H](OC)C[C@H]3OC[C@@]3(OC(C)=O)[C@H]2[C@H](OC(=O)c2ccccc2)[C@]2(O)C[C@H](OC(=O)[C@H](O)[C@@H](NC(=O)OC(C)(C)C)c3ccccc3)C(C)=C1C2(C)C [NSC-761432, Cabazitaxel]
RR (A431B1) [3, 5]: 6.00 | RR (Mes-Sa-B1) [2, 4]: 63.00 | RR (Dx5) (Mes-Sa/Dx5 cells): > 107.00

CC(C)C[C@H](NC(=O)[C@H](Cc1ccccc1)NC(=O)c1cnccn1)B(O)O [bortezomib]
RR (A431B1) [3, 5]: 2.7 | RR (Mes-Sa-B1) [2, 4]: 4.3 | RR (Dx5) (Mes-Sa/Dx5 cells): 17

C[C@@H](Oc1cc(-c2cnn(C3CCNCC3)c2)cnc1N)c1c(Cl)ccc(F)c1Cl [crizotinib]
RR (A431B1) [3, 5]: 2.6 | RR (Mes-Sa-B1) [2, 4]: 9.9 | RR (Dx5) (Mes-Sa/Dx5 cells): 21.3

COc1cc2ncnc(Nc3ccc(F)c(Cl)c3)c2cc1OCCCN1CCOCC1 [gefitinib]
Effect of ABCG2 expression on toxicity (A431-G2 vs parental A431) [1, 6]: conferred resistance

CS(=O)(=O)CCNCc1ccc(-c2ccc3ncnc(Nc4ccc(OCc5cccc(F)c5)c(Cl)c4)c3c2)o1 [lapatinib]
Effect of ABCG2 expression on toxicity (A431-G2 vs parental A431) [1, 6]: conferred resistance

CC[C@@]1(O)C(=O)OCc2c1cc1n(c2=O)Cc2cc3c(CN(C)C)c(O)ccc3nc2-1 [topotecan]
Effect of ABCG2 expression on toxicity (A431-G2 vs parental A431) [1, 6]: conferred resistance
